Positions of bridges follow the written chain, without caps; N, C: chain ends. Non-standard residues stand in square brackets, D forms with d. Residues, ends and D or L forms follow the SMILES beside them.
How the values were obtained:
[1] = system: MCP-1 binding to heparin-coated agarose beads; assay: Competition with 125I-MCP-1 for heparin-coated agarose beads; conditions: 10^-11 to 10^-4 M
Source text: Chemokines bind to glycosaminoglycans on the cell surface, which may facilitate chemokine receptor binding and subsequent signaling. […] This was followed by a monophasic displacement curve at concentrations of approximately 10^-7 to 10^-5 M MCP-1.

[2] = Serum half-life of glucose conjugate after s.c. injection; type: in vivo, rats; conditions: unmodified peptide, comparison value
Procedure: To determine whether sugar conjugates of an agent of the invention had increased plasma half-lives, a glucose conjugate of CRD-Leu4Ile11Cys13 peptide 3(3-12)[MCP-1] was prepared and administered to rats. The conjugate was synthesized by mixing D-glucose (50 mM) and CRD-Leu4Ile11Cys13 peptide 3(3-12)[MCP-1] (1 mM) in phosphate buffered saline and incubating at room temperature for 16 hours. The reaction mixture was then subject to analytical HPLC which indicated a yield of about 30%. The material was then treated with cyanoborohydride to effect reduction of the schiffs base linkage and stabilize the glucosides for purification. The stabilized glucosides were then subjected to preparative HPLC and the mono- and di-substituted glucosides prepared separately. The monoglucoside was obtained at >90% purity in approximately 10% yield, and it is likely that the material is a mixture of Lys5-glucoside and Lys-7 glucoside.
The CRD-Leu4Ile11Cys13 peptide 3(3-12)[MCP-1] monoglucoside was injected into 3 rats (5 mg per rat via s.c. route in sterile PBS). Blood samples were withdrawn through an i.v. cannula at various time points, and CRD-Leu4Ile11Cys13 peptide 3(3-12)[MCP-1] glucoside was quantitated in the serum.

THP-1 cells = assay: Agonist activity: agent in the lower compartment of the migration chamber; type: cell-based, human
Source text: Agents with agonist activity may also be identified using the transwell migration assay, where the cells are placed in the upper compartment (see Figure 1) in the absence of agent, and the agent, e.g. peptide 2[MCP-1], is placed at varying concentrations in the lower compartment in place of the chemokine. […] Preferably, agents having agonist activity also stimulate migration of primary human cells, e.g., monocytes, in a transwell migration assay.
To evaluate the agonist activity ofCRD-Leu4Ile11Cys13 peptide 3(3-12)[MCP-1], CRD-Leu4Ile11Cys13 peptide 3(3-12)[MCP-1] was placed in the lower compartment of the migration chamber at various concentrations and 50,000 THP-1 cells were placed in the upper compartment. The number of cells in the lower compartment after 4 hours was then determined using the vital dye MTT. […] At higher concentrations (1 µM and 10 µM), there may be a small stimulation of migration in this experiment, although the magnitude of this migratory response was less than that seen with 3.25 ng/ml recombinant MCP-1. CRD-Leu4Ile11Cys13 peptide 3(3-12)[MCP-1] is unlikely to have any agonist activity that is significant at concentrations attainable in vivo.

[3] = 8.8 mg i.v. bolus
[4] = system: SDF-1 induced calcium flux; assay: Intracellular calcium flux, SDF-1 as agonist; type: cell-based
B cells = type: cell-based
Modified LD50 technique = type: in vivo, mouse; conditions: 11 mg i.p.
[5] = system: MCP-1 induced human monocyte migration; assay: Migration of freshly prepared peripheral blood monocytes, MCP-1; type: cell-based
Procedure: Agents may also be screened in a chemotactic assay which employs human neutrophils, eosinophils, mast cells, basophils, platelets, lymphocytes or monocytes. For monocytes, 9 mls of fresh blood are transferred to a tube containing 1 ml of 3.8% sodium citrate, and left at room temperature for 15 minutes. Five mls of this anti-coagulated blood are carefully layered over 3.5 ml Polymorphprep® (Nycomed Pharma, Oslo), and centrifuged at 500 g for 35 minutes per the manufacturer's instructions. The top band at the sample/medium interface contains monocytes. The monocytes are carefully removed with a glass pipette, and reconstituted to the original volume (5 ml). The cells are washed with PBS plus 10% fetal calf serum, and centrifuged at 400 g for 10 minutes. The washing step is repeated three times before the cells are counted. Cells are resuspended at 1 × 10^7 cells/ml in RPMI-1640 + 10% fetal calf serum (FCS). The monocytes are cultured for two days at 37°C in a humidified atmosphere of 5% CO2-
On day 2, the cells are counted, spun down, and reconstituted to 1 × 10^7 cells/ml in Gey's balanced salt solution + 1 mg/ml bovine serum albumin (BSA). […]

Compound	displacement of MCP-1 from heparin-coated agarose beads (in words) [1]	T1/2α [2]	agonist activity (in words) (THP-1 cells)	time until serum concentrations decline below LLOQ (in words) [3]	SDF-1 induced calcium flux (in words) [4]	proliferation of B cells to tetanus toxoid (in words) (B cells)	lethality after intraperitoneal administration (in words) (Modified LD50 technique)	% inhibition at 100 µM versus MCP-1 [5]
CC[C@@H](C)[C@H]1NC(=O)[C@@H](CCC(N)=O)NC(=O)[C@H](N)CSSC[C@H](C(N)=O)NC(=O)[C@@H](CC(C)C)NC(=O)[C@@H](CC(=O)O)NC(=O)[C@H]2CCCN2C(=O)[C@@H](CCCCN)NC(=O)[C@@H](CCC(N)=O)NC(=O)[C@@H](CCCCN)NC(=O)[C@@H](Cc2c[nH]c3ccccc23)NC1=O (H-[dC][dQ][dI][dW][dK][dQ][dK][dP][dD][dL][dC]-NH2; disulfide 1-11)	did not result in displacement	15 min	No agonist activity was detected	within four hours	did block	no effect	did not result in lethality	
CC[C@H](C)[C@H](NC(=O)[C@H](C)NC(=O)[C@H](CC(=O)O)NC(=O)[C@@H]1CCCN1C(=O)[C@H](CCC(N)=O)NC(=O)[C@H](C)N)C(=O)N[C@@H](CC(N)=O)C(=O)N[C@@H](C)C(=O)N1CCC[C@H]1C(=O)N[C@H](C(=O)N[C@H](C(=O)N[C@@H](CS)C(=O)N[C@@H](CS)C(=O)O)[C@@H](C)O)C(C)C [Peptide 1] (H-AQPDAINAPVTCC-OH; N-terminus and C-terminus assumed)								n.s.

Source: patent publication EP2386565A2, “Compounds and methods to inhibit or augment an inflammatory response” (Cambridge Enterprise Ltd., priority 1999, dated 2000)
